# Experimental data published in patent EP1140984B1, “SELECTIVE INHIBITORS OF MMP-12” (Aventis Pharmaceuticals Inc., priority 1998, dated 2000).
# Counter-ions that a name gives are not always drawn.
# Key:
# MMP-1 = target: T1, MMP-1 (Homo sapiens, UniProt P03956); test: Determination of inhibition constant (Ki) for MMP-1, fluorogenic substrate assay; type: biochemical; conditions: substrate Mca-Pro-Leu-Gly-Leu-Dpa-Ala-Arg-NH2, 37°C, pH 7.6, [S] = 1 µM, [MMP-1] = 0.8 nM
# T1 construct: The active MMP-1 was obtained by treatment of proMMP-1 with trypsin; endogenous in cells; host or cells: human rheumatoid synovial fibroblasts stimulated with macrophage-conditioned medium
# T1 sequence (P03956 100-469): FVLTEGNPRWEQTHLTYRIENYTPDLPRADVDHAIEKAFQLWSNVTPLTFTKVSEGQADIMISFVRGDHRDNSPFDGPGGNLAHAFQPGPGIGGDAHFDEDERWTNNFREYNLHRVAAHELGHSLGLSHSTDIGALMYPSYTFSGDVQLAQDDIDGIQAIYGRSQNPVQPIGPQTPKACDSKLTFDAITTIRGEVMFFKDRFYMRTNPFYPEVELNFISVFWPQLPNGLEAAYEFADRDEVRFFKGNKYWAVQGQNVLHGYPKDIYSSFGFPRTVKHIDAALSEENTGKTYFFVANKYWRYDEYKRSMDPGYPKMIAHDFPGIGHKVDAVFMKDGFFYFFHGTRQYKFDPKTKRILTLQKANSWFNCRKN
# Experimental: ProMMP-1 (EC 3.4.24.7; interstitial collagenase) was purified from culture medium of human rheumatoid synovial fibroblasts stimulated with macrophage-conditioned medium according to Okada, Y. et al., J. Biol. Chem. 261, 14245-14255 (1986). The active MMP-1 was obtained by treatment of proMMP-1 with trypsin (5 µg/mL) at 37°C for 30 minutes, followed by addition of soybean trypsin inhibitor (50 µg/mL).
# The activated MMP-1 is assayed using a fluorogenic substrate, Mca-Pro-Leu-Gly-Leu-Dpa-Ala-Arg-NH2, Knight, C.G. et al., FEBS Lett. 296, 263-266 (1992), at 37°C in 2.0 mL of assay buffer containing 50 mM Tris, pH 7.6, 0.2 M sodium chloride, 50 mM calcium chloride, and 0.02% Brij-35. The increase in fluorescence due to cleavage of Gly-Leu peptide bond by MMP-3 was monitored with Perkin-Elmer LS50B Fluorimeter (λex 328 nm, λem 393 nm, excitation slit 2.5, emission slit 10). Substrate and inhibitor stock solutions were made in DMF. For determination of Ki values for MMP-1 inhibitors, a series of intermediate inhibitor solutions were prepared in DMF and 1 or 2 µL of the diluted inhibitor solution was mixed with 1 µL of 2 mM substrate solution in DMF in a quartz cuvette containing 2 mL of assay buffer. The enzyme (10 µL of 0.2 µM MMP-3 dilution in assay buffer) was added at the last to start the reaction. For routine measurement of a Ki value for a reversible, competitive inhibitor, the initial rates in the presence of at least four inhibitor concentrations (two concentrations above K; and two concentrations below Ki) were measured using [S] = 1 µM (<< Km) and [MMP-1] = 0.8 nM. Under these conditions, the measured Ki, app is close to true Ki.
# The Ki for a competitive inhibitor is calculated using: v0/vi = (1 + [I]/Ki,app) and Ki = Ki,app/(1 + [S]/Km), where v0 is the initial rate in the absence of inhibitor, vi is the initial rate in the presence of inhibitor at the concentration of [I], [S] is the substrate concentration, and Km is the Michaelis constant. If slow binding is observed (i.e. if the approach to the binding equilibrium is slow), the final steady-state rate rather than the initial rate is taken as vi.
# MMP-2 = target: T2, MMP-2 (Homo sapiens, UniProt P08253); test: Determination of inhibition constant (Ki) for MMP-2, fluorogenic substrate assay; type: biochemical; conditions: substrate Mca-Pro-Leu-Gly-Leu-Dpa-Ala-Arg-NH2, 37°C, pH 7.6, [S] = 1 µM, [MMP-2] = 0.4 nM
# T2 construct: made in house; host or cells: Pichia pastoris (strains KM71 / SMD1168, clone 24S; vector pHIL-D2)
# T2 sequence (P08253 110-660): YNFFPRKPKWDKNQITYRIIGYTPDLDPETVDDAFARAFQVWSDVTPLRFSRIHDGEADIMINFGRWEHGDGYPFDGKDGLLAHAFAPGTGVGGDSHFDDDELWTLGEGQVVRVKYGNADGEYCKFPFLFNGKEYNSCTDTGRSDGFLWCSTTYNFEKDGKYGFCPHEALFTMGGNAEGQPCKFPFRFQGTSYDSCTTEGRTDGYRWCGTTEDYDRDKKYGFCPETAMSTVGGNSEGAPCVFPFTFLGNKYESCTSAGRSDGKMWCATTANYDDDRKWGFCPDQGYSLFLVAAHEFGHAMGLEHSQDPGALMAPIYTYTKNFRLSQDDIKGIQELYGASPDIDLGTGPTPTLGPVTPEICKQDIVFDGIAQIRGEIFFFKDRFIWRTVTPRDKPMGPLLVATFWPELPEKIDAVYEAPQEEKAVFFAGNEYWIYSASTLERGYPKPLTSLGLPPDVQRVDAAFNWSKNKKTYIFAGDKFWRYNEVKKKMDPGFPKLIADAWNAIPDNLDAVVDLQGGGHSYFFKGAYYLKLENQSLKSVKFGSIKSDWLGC
# Excerpt: Recombinant MMP-2 was purified from the fermentation broth of yeast Pichia pastoris that carries the integrated MMP-2 gene into its chromosome. In brief, the full-length cDNA for MMP-2 was obtained by reverse transcription of RNA from human melanoma A375M cell line by the reverse transcriptase polymerase chain reaction (RT-PCR) using sequence specific oligonucleotides. The nucleotide sequence was confirmed by Taq cycle sequencing. The cDNA was ligated into the Pichia pastoris expression vector pHIL-D2 in such a way that the expression of pro-MMP-2 is under the control of the methanol inducible alcohol oxidase promoter. The expression construct was digested with either SalI or NsiI and used to transform the Pichia pastoris strains KM71 and SMD1168. A large-scale culture of a selected clone designated 24S was performed in a high cell density fermentor and the recombinant MMP-2 was purified from the culture supernatant by gelatin-sepharose 4B (Pharmacia). The enzyme is sufficiently pure at this stage for routine measurement of inhibition. If desired, however, the enzyme may be further purified by AcA 44 gel filtration (Spectra).
# The active MMP-2 was obtained by activation of proMMP-2 at 37°C for 1 h with 4-aminophenylmercuric acetate which was then removed by a Sephadex G-50 spin column. The enzyme is assayed using a fluorogenic substrate, Mca-Pro-Leu-Gly-Leu-Dpa-Ala-Arg-NH2, at 37°C in 2.0 mL of assay buffer containing 50 mM Tris, pH 7.6, 0.2 M sodium chloride, 50 mM calcium chloride, 0.02% Brij-35, and 50 µM β-mercaptoethanol. The increase in fluorescence is monitored (λex 328 nm, λem 393 nm). Substrate and inhibitor stock solutions are made in DMF. The enzyme is added at the last to start the reaction. For routine measurement of a Ki value for a reversible, competitive inhibitor, the initial rates in the presence of at least four inhibitor concentrations (two inhibitor concentrations above Ki and two below Ki) are measured using [S] = 1 µM (<<Km) and [MMP-2] = 0.4 nM. Under these conditions, the measured Ki, app is close to true Ki.
structure (smiles),measurement,setting,value
"CC(C)[C@H](S)C(=O)N[C@@H](CCc1ccccc1)C(=O)N[C@@H](Cc1ccccc1)C(=O)O [Example 2, (S)-2-Mercapto-3-methylbutyroyl-(L)-homo-phenylalanyl-(L)-phenylalanine]",Ki,MMP-1,5110 nM
same,Ki,MMP-2,731 nM
"CSCC[C@H](NC(=O)C(S)C(C)C)C(=O)N[C@@H](Cc1ccccc1)C(=O)O (stereo in doubt) [Example 4, (S)-2-Mercapto-3-methylbutyroyl-(L)-methionyl-(L)-phenylalanine]",Ki,MMP-1,153 nM
same,Ki,MMP-2,798 nM
"CNC(=O)[C@H](Cc1ccccc1)NC(=O)[C@H](CCc1ccccc1)NC(=O)[C@@H](S)C(C)C [Example 7, (S)-2-Mercapto-3-methylbutyroyl-(L)-homo-phenylalanyl-(L)-phenylalanine N-methyl amide]",Ki,MMP-1,465 nM
same,Ki,MMP-2,3.3 nM
"CCCC(S)C(=O)N[C@@H](CCc1ccccc1)C(=O)N[C@@H](Cc1ccccc1)C(=O)O (stereo partly shown) [Example 1, 2-Mercapto-pentanoyl-(L)-homo-phenylalanyl-(L)-phenylalanine]",Ki,MMP-1,5800 nM
same,Ki,MMP-2,1800 nM
"CCCC(S)C(=O)N[C@@H](CCc1ccccc1)C(=O)N[C@@H](Cc1ccccc1)C(=O)NC (stereo partly drawn) [Example 6, (S)-2-Mercaptopentanoyl-(L)-homo-phenylalanyl-(L)-phenylalanine N-methyl amide]",Ki,MMP-1,360 nM
"CC(C)C[C@H](NC(=O)C(S)C(C)C)C(=O)N[C@@H](Cc1ccccc1)C(=O)O (stereo in doubt) [Example 3, (S)-2-Mercapto-3-methylbutyroyl-(L)-leucyl-(L)-phenylalanine]",Ki,MMP-1,518 nM
same,Ki,MMP-2,784 nM
"CC(C)C(S)C(=O)N[C@@H](CCCCN)C(=O)N[C@@H](Cc1ccccc1)C(=O)O (stereo in doubt) [Example 5, (S)-2-Mercapto-3-methylbutyroyl-(L)-lysyl-(L)-phenylalanine trifluoroacetic acid salt]",Ki,MMP-1,3910 nM
same,Ki,MMP-2,1740 nM
